Consider 18 molecules from ChEMBL document CHEMBL1671861, “Preclinical evaluation of 1H-benzylindole derivatives as novel human immunodeficiency virus integrase strand transfer inhibitors” (Antimicrob Agents Chemother, 2008).

In data set [1] the test system is Human immunodeficiency virus 2. Briefly: Antiretroviral activity against Human immunodeficiency virus 2 ROD infected in human MT4 cells assessed as inhibition of virus-induced cytopathic effect by MTT assay. The data set is classed as functional, organism-based. As to conditions: Human immunodeficiency virus 2, ISOLATE ROD.
In data set [2] the test system is Human immunodeficiency virus 2. Put plainly: Antiretroviral activity against Human immunodeficiency virus 2 EHO infected in human MT4 cells assessed as inhibition of virus-induced cytopathic effect by MTT assay. The data set is classed as functional, organism-based.
Data set [3] deals with Simian immunodeficiency virus. Put plainly: Antiretroviral activity against Simian immunodeficiency virus MAC 251 infected in human MT4 cells assessed as inhibition of virus-induced cytopathic effect by MTT assay. The data set is classed as functional, organism-based. Conditions: MAC 251, MT4. A general note: Damage to the host cells serves as the signal in cytopathic effect assays.

Data set [4] deals with Human immunodeficiency virus 1. Briefly: Antiviral activity against Human immunodeficiency virus 1 3B infected in human MT4 cells assessed as inhibition of viral replication. The data set is classed as functional, organism-based.
Data set [5] concerns the target T1, Human immunodeficiency virus type 1 integrase (Human immunodeficiency virus 1, UniProt Q7ZJM1). Briefly: Inhibition of Human immunodeficiency virus 1 integrase.
Data set [6] has as its target T1, Human immunodeficiency virus type 1 integrase. Briefly: Inhibition of Human immunodeficiency virus 1 integrase strand transfer activity.
A short description of data set [7]: Cytotoxicity against human MT4 cells by MTT assay. It counts as cell-based. (Tetrazolium assays rely on reduction of a dye to a coloured formazan, in cell work by metabolically active cells.)
Data set [8] is described as follows: Selectivity index, ratio of CC50 for human MT4 cells to EC50 for Human immunodeficiency virus 1 3B. The data set is classed as toxicity, cell-based. As to conditions: read-out: Ratio CC50/EC50.
For data set [9], the system named is Human immunodeficiency virus 1. Briefly: Antiretroviral activity against Human immunodeficiency virus 1 3B infected in human MT4 cells assessed as inhibition of virus-induced cytopathic effect by MTT assay. The data set is classed as functional, organism-based.
For data set [10], the system named is Human immunodeficiency virus 1. Put plainly: Antiretroviral activity against Human immunodeficiency virus 1 NL4.3 infected in human MT4 cells assessed as inhibition of virus-induced cytopathic effect by MTT assay. It counts as functional, organism-based. As to conditions: Human immunodeficiency virus 1, NL4.3, MT4.
Data set [11] relates to Human immunodeficiency virus 1. Put plainly: Ratio of EC50 for Human immunodeficiency virus 1 3B after 70 passages to EC50 for wild-type Human immunodeficiency virus 1 3B. The data set is classed as functional.
Data set [12] relates to Human immunodeficiency virus 1. Put plainly: Antiviral activity against X4 tropic Human immunodeficiency virus 1 3B infected in PMBC. It counts as functional, organism-based.
Data set [13] deals with Human immunodeficiency virus 1. Briefly: Antiviral activity against R5 tropic Human immunodeficiency virus 1 BAL infected in PMBC. The data set is classed as functional, organism-based.
Data set [14] deals with Human immunodeficiency virus 1. Briefly: Antiviral activity against Reverse transcriptase inhibitor-resistant Human immunodeficiency virus 1 infected in human MT4 cells assessed as inhibition of virus-induced cytopathic effect by MTT assay. It counts as functional, organism-based. As to conditions: Human immunodeficiency virus 1, MT4.
Data set [15] concerns Human immunodeficiency virus 1. Briefly: Antiviral activity against non nucleoside reverse transcriptase inhibitor-resistant Human immunodeficiency virus 1 infected in human MT4 cells assessed as inhibition of virus-induced cytopathic effect by MTT assay. It counts as functional, organism-based. As to conditions: Human immunodeficiency virus 1, MT4.
For data set [16], the system named is Human immunodeficiency virus 1. Briefly: Antiviral activity against Protease inhibitor-resistant Human immunodeficiency virus 1 infected in human MT4 cells assessed as inhibition of virus-induced cytopathic effect by MTT assay. The data set is classed as functional, organism-based. Conditions: Human immunodeficiency virus 1, MT4.
The subject of data set [17] is Human immunodeficiency virus 1. Briefly: Antiviral activity against Human immunodeficiency virus 1 during lentiviral transduction process assessed as inhibition of early cDNA synthesis by Lentiviral vector transduction assay. The data set is classed as functional, organism-based.
Data set [18] relates to Human immunodeficiency virus 1. Put plainly: Antiviral activity against Human immunodeficiency virus 1 infected in 293T cells assessed as inhibition of early cDNA synthesis by Lentiviral vector transduction assay. It counts as functional, organism-based.
The subject of data set [19] is Human immunodeficiency virus 1. Briefly: Antiviral activity against Human immunodeficiency virus 1 infected in 293T cells assessed as integrated proximal DNA by Q-PCR. It counts as functional, organism-based.
The subject of data set [20] is Human immunodeficiency virus 1. Put plainly: Antiviral activity against Human immunodeficiency virus 1 infected in 293T cells assessed as increase in amount of 2-LTR circles by Q-PCR in presence of 12.2 uM CHI/1043. It counts as functional, organism-based.
A short description of data set [21]: Intrinsic clearance in human liver microsome. The data set is classed as ADME. Conditions: liver microsomes. (Microsomes from liver hold many membrane-bound enzymes, among them those of drug oxidation.)
Data set [22] in a line: Apparent permeability from apical to basolateral side of human Caco2 cells. It counts as ADME, cell-based. As to conditions: Caco-2.

SMILES strings stand for the structures. Calls of active or inactive are those of the source. The calls are words filed in the database; no cut-off is given here. A value given as a limit tells only on which side of the number the result lay.

T1 sequence (Q7ZJM1 whole entry): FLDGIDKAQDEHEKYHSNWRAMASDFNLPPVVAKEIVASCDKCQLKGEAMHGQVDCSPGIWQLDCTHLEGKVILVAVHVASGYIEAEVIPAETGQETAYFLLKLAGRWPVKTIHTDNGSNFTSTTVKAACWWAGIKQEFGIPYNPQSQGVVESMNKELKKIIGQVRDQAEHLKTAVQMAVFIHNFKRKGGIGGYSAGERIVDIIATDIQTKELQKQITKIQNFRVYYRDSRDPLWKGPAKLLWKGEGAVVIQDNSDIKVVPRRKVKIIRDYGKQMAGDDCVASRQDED

As a reminder, the EC50 is the midpoint of the concentration-response curve. For the molecule `O=C1Nc2ccc(Cl)cc2[C@@](C#CC2CC2)(C(F)(F)F)O1` [EFAVIRENZ], the EC50 in [1], in data set [2] and in data set [3] was more than 31700 nM in each case.
Take `COc1cc2c(cc1Cc1cccc(Cl)c1F)c(=O)c(C(=O)O)cn2[C@H](CO)C(C)C`: the half-maximal effective concentration (EC50) in [4] amounted to 0.83 nM.
Usually IC50 stands for the concentration needed to halve the response being measured. A high value points to weaker potency. For orientation: CC50 means the concentration that lowers cell viability or growth by half. High values mean better tolerance by the cells, low ones harm at low concentration. Turning to `O=C(NCc1ccc(F)cc1)c1nc(N2CCCCS2(=O)=O)c2cccnc2c1O`, the figures for the half-maximal inhibitory concentration (IC50) in data set [5] and in [6] were 2.3 nM and 7 nM, respectively. In addition, in data set [4], the EC50 worked out at 4.9 nM. For the same molecule, the cytotoxic concentration (CC50) in data set [7] is 2250 nM. Also, in [8], the selectivity ratio was 460.
In the case of `COc1ccc(OC)c2c1c(C(=O)/C=C(\O)C(=O)O)cn2Cc1ccc(F)cc1`, the selectivity ratio in data set [8] turned out to be 100.
The same measure, in the same setting: the figure for `CCOC(=O)/C(O)=C/C(=O)c1cn(Cc2ccc(F)cc2)c2cccc(OC)c12` is 24.
Still for that read-out and setting: the figure for `COc1ccc2c(c1)c(C(=O)/C=C(\O)C(=O)O)cn2Cc1ccc(F)cc1` is 12.
As usually defined, the microsomal CLint is a measure of how fast metabolising enzymes remove a compound, apart from limits set by blood flow. Read a low microsomal CLint as slow turnover. The term Papp A→B denotes the apparent permeability from the apical to the basolateral side of a cell layer. In turn, `COc1cccc2c1c(C(=O)/C=C(\O)C(=O)O)cn2Cc1ccc(F)cc1` had a half-inhibitory concentration (IC50) in data set [5] of 110 nM. The EC50 in [4] was 600 nM; in data set [9], 600 nM; in data set [10], 730 nM; in data set [1], 2110 nM; in data set [2] it was 1760 nM; in data set [3], 4760 nM. Also, the EC50 is 300 nM in data set [12]; 300 nM in data set [13]; 860 nM in [14]; 840 nM in data set [15]; 680 nM in [16]. In [8], the selectivity ratio was 69.8. Besides, in data set [11], the “Ratio EC50” value was more than 40. Besides, the inhibition entry in data set [17], in data set [19] and in data set [20] was “inactive” each time. Moreover, the inhibition result in data set [18] is “Active”. The same molecule gave a microsomal CLint in data set [21] of 11 µL/min/mg. For the same molecule, the Papp A→B in data set [22] worked out at 5.5 ×10⁻⁶ cm/s.
With `O=C(O)C(=O)CC(=O)c1cc(OCc2ccccc2)cc(OCc2ccccc2)c1`, the concentration for a half-maximal effect (EC50) in data set [4] was determined as 12400 nM; in [9] it was 12400 nM; in [10], 24500 nM; in data set [1] it was 62100 nM; in [3] it was 22600 nM; in data set [14], 7200 nM. Besides, the values for the EC50 in data set [15] and in [16] were 19300 nM and 7400 nM, respectively. Further, the CC50 in [7] amounted to 62000 nM. The selectivity ratio in data set [8] amounted to 5.
In the case of `CCOC(=O)/C(O)=C/C(=O)c1cn(Cc2ccc(F)cc2)c2c(OC)cccc12`, the selectivity ratio in [8] was determined as 1.
With `O=C(O)/C(O)=C/C(=O)c1cn(Cc2ccccc2)c2ccccc12`, the IC50 in [5] was found to be 860 nM; in data set [6] it was 2330 nM. The EC50 in data set [4] was 8350 nM. For the same molecule, in data set [7], the CC50 was found to be 64100 nM. The selectivity ratio in [8] is 8.
As for `Cc1nnc(C(=O)NC(C)(C)c2nc(C(=O)NCc3ccc(F)cc3)c(O)c(=O)n2C)o1`, the EC50 in data set [4] worked out at 1.4 nM.
As for `Cc1cn([C@H]2C[C@H](N=[N+]=[N-])[C@@H](CO)O2)c(=O)[nH]c1=O` [ZIDOVUDINE], the EC50 in data set [9] stood at 27 nM; in data set [10], 21 nM; in data set [1], 67 nM; in data set [2] it was 56 nM; in [3], 11 nM; in data set [14] it was 200 nM. Besides, the concentration giving a half-maximal response (EC50) in data set [15] came out at 20 nM; in [16], 26 nM.
Turning to `COc1cccc2c(C(=O)/C=C(\O)C(=O)O)cn(Cc3ccc(F)cc3)c12`, the selectivity ratio in data set [8] was 12.
Take `CCOC(=O)/C(O)=C/C(=O)c1cn(Cc2ccc(F)cc2)c2ccc(OC)cc12`: the selectivity ratio in data set [8] was 11.
Take `CCOC(=O)/C(O)=C/C(=O)c1cn(Cc2ccc(F)cc2)c2cc(OC)ccc12`: the selectivity ratio in [8] was less than 1.
Same read-out and setting: the figure for `COc1ccc2c(C(=O)/C=C(\O)C(=O)O)cn(Cc3ccc(F)cc3)c2c1` is 8.
Regarding `Cc1c(O)cccc1C(=O)N[C@@H](CSc1ccccc1)[C@H](O)CN1C[C@H]2CCCC[C@H]2C[C@H]1C(=O)NC(C)(C)C`, the EC50 in data set [9] is 28 nM; in data set [10], 23 nM; in data set [1], 50 nM; in data set [2], 49 nM; in data set [3], 50 nM; in data set [14] it was 29 nM. Further, the concentration for a half-maximal effect (EC50) in data set [15] worked out at 35 nM; in data set [16] it was 170 nM.
For the molecule `CCOC(=O)/C(O)=C/C(=O)c1cn(Cc2ccc(F)cc2)c2c(OC)ccc(OC)c12`, the selectivity ratio in data set [8] amounted to 20.
